Reference: patent US9120775B2, “Viral polymerase inhibitors” (Biota Scientific Management Pty Ltd, priority 2012, dated 2015)
In brackets after ≈: the same amount, converted by molar mass. Read-outs that look alike come from different tables or passages of the source.

Columns and labels:
[1] = tested on: genotype 1b (Con 1) subgenomic replicon cell line; experiment: HCV replicon assay, genotype 1b, Renilla luciferase reporter; format: cell-based; details: Hepatitis C virus; 72 hours incubation, Renilla luciferase activity
Protocol: A genotype 1b (Con 1) subgenomic replicon cell line based on Blight et al., Science 2000 290: 1972-1974, modified to express a Renilla luciferase reporter gene was used to assess antiviral activity of test compounds. Cell cultures were maintained in a sub-confluent state in DMEM with glutamine, 10% heat-inactivated foetal bovine serum (FBS) and G418 (Geneticin®).
For assay, cells were seeded at a density of 7000 cells/well into 96 well tissue culture trays in culture media lacking G418. Compounds were tested in a three fold dilution series, for example starting from 50 uM. After 72 hours incubation at 37° C. and 5% CO2, Renilla luciferase activity was quantified via the Promega Renilla Luciferase or Renilla-Glo™ Luciferase Assay Systems (Promega corporation. The same method was employed for replicon assays using subgenomic genotype 1a (H77) and 2a (JFH-1) replicon cell lines with a seeding cell density of 5000 cells/well for the 2a cell lines.
The compound concentration that reduced luciferase activity by 50% (EC50) was calculated using non-linear regression.

1b (BK) NS5BΔ21 = target: T1, 1b (BK) NS5BΔ21 (Hepatitis C virus genotype 1b, UniProt P26663); experiment: HCV polymerase inhibition assay; format: biochemical
T1 construct: 100 nM 1b (BK) NS5BΔ21
T1 sequence (P26663 2420-2989, stated change not applied): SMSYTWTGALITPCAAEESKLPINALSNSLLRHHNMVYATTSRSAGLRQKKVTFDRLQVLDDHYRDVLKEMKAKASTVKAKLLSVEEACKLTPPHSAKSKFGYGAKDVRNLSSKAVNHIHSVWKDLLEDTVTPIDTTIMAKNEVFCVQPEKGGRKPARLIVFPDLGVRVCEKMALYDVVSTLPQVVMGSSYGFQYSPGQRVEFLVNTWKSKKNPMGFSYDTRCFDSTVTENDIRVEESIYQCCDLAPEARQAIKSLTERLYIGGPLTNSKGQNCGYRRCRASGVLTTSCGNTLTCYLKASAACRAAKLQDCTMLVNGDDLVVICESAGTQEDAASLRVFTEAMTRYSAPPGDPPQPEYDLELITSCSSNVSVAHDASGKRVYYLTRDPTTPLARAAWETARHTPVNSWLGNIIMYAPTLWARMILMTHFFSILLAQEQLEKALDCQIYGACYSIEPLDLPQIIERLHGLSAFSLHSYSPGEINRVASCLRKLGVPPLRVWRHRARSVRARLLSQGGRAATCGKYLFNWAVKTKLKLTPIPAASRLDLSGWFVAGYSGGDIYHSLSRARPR
Protocol: HCV polymerase reactions were carried out using a modified method of Howe et al., Antimicrobial Agents and Chemotherapy 2004 48(12): 4813-4821. Reactions contained a final concentration of, 0.5% DMSO, 100 nM 1b (BK) NS5BΔ21, 20 mM Tris-HCl pH 7.5, 5 mM MgCl2, 5 mM MnCl2, 3 mM DTT, 0.05% BSA, 0.2 U/μL RNasin, 10 μg/mL Poly(rC) template, GTP (at Km) and 0.05 μCi/μL ^33P-GTP in a total reaction volume of 50 μL. Compounds were tested in a three fold dilution series, for example starting from 50 μM. Reactions were initiated with the addition of GTP and terminated after […] with 50 μL ice cold 0.2 M EDTA. Terminated reactions were transferred to DEAE 96-well filter plates, unincorporated nucleotides washed from the filters and 50 μL scintillation fluid added prior to reading on a scintillation counter. The compound concentration that reduced ^33P-GTP incorporation by 50% (IC50) was calculated using non-linear regression.

[2] = Aqueous solubility (laser nephelometry); format: physicochemical; details: aqueous assay buffer pH 6.5 with 1% DMSO, aqueous buffer, kinetic from dmso stock, pH 6.5, 1% DMSO, 30 minute incubation at 25° C.
Protocol: Test compounds prepared in DMSO were screened in duplicate over a range of concentrations (1.6-100 ug/mL) in different aqueous media (for example a pH6.5 buffers which are relevant to the stomach and upper regions of the small intestine and therefore important when predicting the amount of drug likely to be in solution following oral administration). Test compounds were serially diluted in 100% DMSO ranging from 10-0.16 mg/mL. These titrated DMSO stocks were then further diluted 1:100 with assay buffer and added to test plates (UV Star Griener 384 well plates), maintaining the DMSO concentration at 1%.

[3] = read-out: solubility ranges at pH 6.5

| solubility at 30 min ([2]; read-out: Solubility at pH 6.5) [µg/mL] | solubility at 30 min [2, 3] [µg/mL] | Compound | EC50 [1] [nM] | IC50 (1b (BK) NS5BΔ21) [nM] |
| --- | --- | --- | --- | --- |
| – | – | CNC(=O)c1c2cc(C3CC3)c(N(CCC3CN(C(=O)OC(C)(C)C)C3)S(C)(=O)=O)cc2nn1-c1ccc(Cl)cc1 [Compound 19, tert-butyl 3-(2-{[2-(4-chlorophenyl)-5-cyclopropyl-3-(methylcarbamoyl)-2H-indazol-6-yl](methylsulfonyl)amino}ethyl)azetidine-1-carboxylate] | < 100 | 100 to 490 |
| – | – | CNC(=O)c1c2cc(C3CC3)c(N(CCC3COC3C)S(C)(=O)=O)cc2nn1-c1ccc(Cl)cc1 (stereo not drawn) [Compound 31, 2-(4-chlorophenyl)-5-cyclopropyl-N-methyl-6-[2-[-2-methyloxetan-3-yl]ethyl-methylsulfonyl-amino]indazole-3-carboxamide] | < 100 | 100 to 490 |
| < 1.6 | – | CNC(=O)c1c2cc(C3CC3)c(N(CC3CCOC3)S(C)(=O)=O)cc2nn1-c1ccc(Cl)cc1 (stereo not drawn) [C, reference compound] | – | – |
| – | – | CNC(=O)c1c2cc(C3CC3)c(N(CCCC3CCO3)S(C)(=O)=O)cc2nn1-c1ccc(Cl)cc1 (stereo not drawn) [Compound 4, 2-(4-chlorophenyl)-5-cyclopropyl-N-methyl-6-{(methylsulfonyl)[3-(oxetan-2-yl)propyl]amino}-2H-indazole-3-carboxamide] | < 100 | < 100 |
| – | 12.5 to 25 (≈ 21.5 to 42.9 µM) | CNC(=O)c1c2cc(C3CC3)c(N(CCC3CN(C(=O)OC(C)(C)C)C3)S(C)(=O)=O)cc2nn1-c1ccc(C)cn1 [Compound 24, tert-butyl 3-[2-[[5-cyclopropyl-3-(methylcarbamoyl)-2-(5-methyl-2-pyridyl)indazol-6-yl]-methylsulfonyl-amino]ethyl]azetidine-1-carboxylate] | – | – |
| – | – | CNC(=O)c1c2cc(C3CC3)c(N(CC3(C)COC3)S(C)(=O)=O)cc2nn1-c1ccc(Cl)cc1 [Compound 12, 2-(4-chlorophenyl)-5-cyclopropyl-N-methyl-6-{[(3-methyloxetan-3-yl)methyl](methylsulfonyl)amino}-2H-indazole-3-carboxamide] | 1000 to 10000 | 1000 to 10000 |
| – | 12.5 to 25 (≈ 25.1 to 50.2 µM) | CNC(=O)c1c2cc(C3CC3)c(N(CCC3COC3C)S(C)(=O)=O)cc2nn1-c1ccc(C)cn1 (stereo not drawn) [Compound 20, 5-cyclopropyl-N-methyl-6-{[2-(2-methyloxetan-3-yl)ethyl](methylsulfonyl)amino}-2-(5-methylpyridin-2-yl)-2H-indazole-3-carboxamide] | – | – |
| – | – | CNC(=O)c1c2cc(C3CC3)c(N(CCC3CCO3)S(C)(=O)=O)cc2nn1-c1ccc(Cl)cc1 (stereo not drawn) [Compound 13, 2-(4-chlorophenyl)-5-cyclopropyl-N-methyl-6-{(methylsulfonyl)[2-(oxetan-2-yl)ethyl]amino}-2H-indazole-3-carboxamide] | < 100 | 100 to 490 |
| – | – | CNC(=O)c1c2cc(C3CC3)c(N(CCC3(C(C)C)COC3)S(C)(=O)=O)cc2nn1-c1ccc(Cl)cc1 [Compound 16, 2-(4-chlorophenyl)-5-cyclopropyl-N-methyl-6-[(methylsulfonyl) {2-[3-(propan-2-yl)oxetan-3-yl]ethyl}amino]-2H-indazole-3-carboxamide] | < 100 | < 100 |
| – | – | CNC(=O)c1c2cc(C3CC3)c(N(CCC3CNC3)S(C)(=O)=O)cc2nn1-c1ccc(Cl)cc1 [Compound 6, 6-{[2-(Azetidin-3-yl)ethyl](methylsulfonyl)amino}-2-(4-chlorophenyl)-5-cyclopropyl-N-methyl-2H-indazole-3-carboxamide] | 1000 to 10000 | 100 to 490 |
| – | – | CNC(=O)c1c2cc(C3CC3)c(N(CC(C)C3COC3)S(C)(=O)=O)cc2nn1-c1ccc(Cl)cc1 (stereo not drawn) [Compound 15, 2-(4-chlorophenyl)-5-cyclopropyl-N-methyl-6-{(methylsulfonyl) [2-(oxetan-3-yl)propyl]amino}-2H-indazole-3-carboxamide] | 500 to 990 | 100 to 490 |
| < 1.6 | – | CNC(=O)c1c2cc(C3CC3)c(N(CCC3CCOCC3)S(C)(=O)=O)cc2nn1-c1ccc(Cl)cc1 [D, reference compound] | – | – |
| – | – | CNC(=O)c1c2cc(C3CC3)c(N(CCC3COC3)S(C)(=O)=O)cc2nn1-c1ccc(Cl)cc1 [Compound 10, 2-(4-chlorophenyl)-5-cyclopropyl-N-methyl-6-{(methylsulfonyl)[2-(oxetan-3-yl)ethyl]amino}-2H-indazole-3-carboxamide] | < 100 | < 100 |
| – | – | CNC(=O)c1c2cc(C3CC3)c(N(CCC3(C)COC3)S(C)(=O)=O)cc2nn1-c1ccc(Cl)cc1 [Compound 11, 2-(4-chlorophenyl)-5-cyclopropyl-N-methyl-6-{[2-(3-methyloxetan-3-yl)ethyl](methylsulfonyl)amino}-2H-indazole-3-carboxamide] | < 100 | < 100 |
| 3.1 to 6.3 (≈ 6.55 to 13.3 µM) | – | CNC(=O)c1c2cc(C3CC3)c(N(CC3CC3)S(C)(=O)=O)cc2nn1-c1ccc(Cl)cc1 [B, reference compound] | – | – |
| – | – | CNC(=O)c1c2cc(C3CC3)c(N(CCN3CC(O)C3)S(C)(=O)=O)cc2nn1-c1ccc(Cl)cc1 [Compound 22, 2-(4-chlorophenyl)-5-cyclopropyl-6-[2-(3-hydroxyazetidin-1-yl)ethyl-methylsulfonyl-amino]-N-methyl-indazole-3-carboxamide] | 100 to 490 | 500 to 990 |
| – | > 100 | CNC(=O)c1c2cc(C3CC3)c(N(CCC3(C)COC3)S(C)(=O)=O)cc2nn1-c1ccc(C)cn1 [Compound 21, 5-cyclopropyl-N-methyl-6-{[2-(3-methyloxetan-3-yl)ethyl](methylsulfonyl)amino}-2-(5-methylpyridin-2-yl)-2H-indazole-3-carboxamide] | – | – |
| 1.6 to 3.1 (≈ 3.29 to 6.37 µM) | – | CNC(=O)c1c2cc(C3CC3)c(N(CC3CCC3)S(C)(=O)=O)cc2nn1-c1ccc(Cl)cc1 [A, reference compound] | – | – |
| – | – | CNC(=O)c1c2cc(C3CC3)c(N(CCC3CN(C)C3)S(C)(=O)=O)cc2nn1-c1ccc(Cl)cc1 [Compound 7, 2-(4-chlorophenyl)-5-cyclopropyl-N-methyl-6-{[2-(1-methylazetidin-3-yl)ethyl](methylsulfonyl)amino}-2H-indazole-3-carboxamide] | 100 to 490 | 100 to 490 |
| – | – | CNC(=O)c1c2cc(C3CC3)c(N(CCC3COC3)S(C)(=O)=O)cc2nn1-c1ccc(C)cn1 [Compound 5, 5-cyclopropyl-N-methyl-2-(5-methylpyridin-2-yl)-6-{(methylsulfonyl)[2-(oxetan-3-yl)ethyl]amino}-2H-indazole-3-carboxamide] | – | 500 to 990 |
| – | 50 to 100 (≈ 97.3 to 195 µM) | CNC(=O)c1c2cc(C3CC3)c(N(CCC3(OC)COC3)S(C)(=O)=O)cc2nn1-c1ccc(C)cn1 [Compound 28, 5-cyclopropyl-6-[2-(3-methoxyoxetan-3-yl)ethyl-methylsulfonyl-amino]-N-methyl-2-(5-methyl-2-pyridyl)indazole-3-carboxamide] | – | – |
| – | – | CNC(=O)c1c2cc(C3CC3)c(N(CCC3(OC)CN(C(=O)OC(C)(C)C)C3)S(C)(=O)=O)cc2nn1-c1ccc(Cl)cc1 [Compound 27, tert-butyl 3-[2-[[2-(4-chlorophenyl)-5-cyclopropyl-3-(methylcarbamoyl)indazol-6-yl]-methylsulfonyl-amino]ethyl]-3-methoxy-azetidine-1-carboxylate] | < 100 | 500 to 990 |

| Compound | solubility at 30 min ([2]; read-out: Solubility at pH 6.5) [µg/mL] | solubility at 30 min [2, 3] [µg/mL] | EC50 [1] [nM] | IC50 (1b (BK) NS5BΔ21) [nM] |
| --- | --- | --- | --- | --- |
| CNC(=O)c1c2cc(C3CC3)c(N(CCC3COC3C)S(C)(=O)=O)cc2nn1-c1ccc(Cl)cc1 (stereo not drawn) [Compound 9, 2-(4-Chlorophenyl)-5-cyclopropyl-N-methyl-6-[{2[-2-methyloxetan-3-yl]ethyl}(methylsulfonyl)amino]-2H-indazole-3-carboxamide] | – | 25 to 50 (≈ 48.4 to 96.7 µM) | – | – |
